Results taken from ChEMBL document CHEMBL5576126, “Discovery of Novel, Selective, and Nonbasic Agonists for the Kappa-Opioid Receptor Determined by Salvinorin A-Based Virtual Screening” (J Med Chem, 2024).
Activity calls are given as the source filed them. No cut-off for these calls is given here.

Tests used:
[1] = biological target: Delta-type opioid receptor (Homo sapiens) (UniProt P41143); assay: Binding affinity to human Delta-opioid receptor expressed in CHO cell membrane assessed as inhibition of [3H]DPDPE binding to DOR at 10 uM incubated for 60 mins by radioligand binding assay; assay type: cell membranes
[2] = biological target: Kappa-type opioid receptor (Homo sapiens) (UniProt P41145); assay: Agonist activity at human Kappa-opioid receptor expressed in CHO cell membrane assessed as induction of [35S]GTPgammaS binding by measuring G protein activation incubated for 60 mins by liquid scintillation counting assay; assay type: functional, cell membranes
[3] = biological target: Kappa-type opioid receptor (Homo sapiens) (UniProt P41145); assay: Binding affinity to human Kappa-opioid receptor expressed in CHO cell membrane assessed as inhibition of [3H]-U69593 binding to KOR incubated for 60 mins by radioligand binding assay; assay type: cell membranes
[4] = biological target: Kappa-type opioid receptor (Homo sapiens) (UniProt P41145); assay: Potency index, ratio of SalA-VS-07 Ki to test compound Ki for Binding affinity to human Kappa-opioid receptor expressed in CHO cell membrane assessed as inhibition of [3H]-U69593 binding to KOR; assay type: cell membranes; settings: filed as agonist
[5] = biological target: Kappa-type opioid receptor (Homo sapiens) (UniProt P41145); assay: Agonist activity at human Kappa-opioid receptor expressed in human U2OS cells co-expressing enzyme acceptor tagged beta-arrestin2 fusion protein assessed as increase in beta-arrestin2 recruitment at 10 uM incubated for 180 mins by DiscoverX pathHunter express beta-arrestin2 assay; assay type: functional, cell-based

Sequence of Delta-type opioid receptor (Homo sapiens) (P41143 whole entry): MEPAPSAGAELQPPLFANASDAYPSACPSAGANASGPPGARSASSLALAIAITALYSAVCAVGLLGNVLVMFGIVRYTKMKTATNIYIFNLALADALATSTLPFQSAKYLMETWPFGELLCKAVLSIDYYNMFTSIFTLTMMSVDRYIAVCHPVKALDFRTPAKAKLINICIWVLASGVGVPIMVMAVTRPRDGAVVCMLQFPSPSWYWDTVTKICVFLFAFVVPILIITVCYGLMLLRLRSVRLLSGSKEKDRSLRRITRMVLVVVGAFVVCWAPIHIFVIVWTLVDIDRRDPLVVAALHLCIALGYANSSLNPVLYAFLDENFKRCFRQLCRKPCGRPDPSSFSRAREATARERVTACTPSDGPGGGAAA
Sequence of Kappa-type opioid receptor (Homo sapiens) (P41145 whole entry, the tested form may be a part): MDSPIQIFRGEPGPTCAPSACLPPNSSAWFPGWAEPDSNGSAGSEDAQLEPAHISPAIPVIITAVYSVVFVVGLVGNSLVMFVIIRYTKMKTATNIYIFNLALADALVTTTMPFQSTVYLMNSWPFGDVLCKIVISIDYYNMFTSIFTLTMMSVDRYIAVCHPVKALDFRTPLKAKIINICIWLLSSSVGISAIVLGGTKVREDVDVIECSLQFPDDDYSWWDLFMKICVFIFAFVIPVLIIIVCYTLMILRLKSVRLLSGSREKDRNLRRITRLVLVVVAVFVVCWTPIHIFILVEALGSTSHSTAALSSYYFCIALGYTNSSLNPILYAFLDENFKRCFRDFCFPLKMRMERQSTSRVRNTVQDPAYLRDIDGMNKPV

Structure (SMILES)	Activity [1]	Activity [2]	Activity ([3]; filed as agonist)	Ratio Ki [4]	Activity [5]	Activity ([3]; filed as partial agonist)
CCO[C@@]12Cc3c([nH]c4ccccc34)[C@]3(C)Oc4c(O)ccc5c4[C@@]31CCN(CC1CC1)C2C5	Active	–	–	–	–	–
Cc1cc2n(n1)C1(CCN(C(=O)c3ccncc3)CC1)CC(=O)N2CC1CC1	–	inactive	–	–	–	–
Cc1cc2n(n1)C1(CCN(C(=O)c3cccc(F)c3)CC1)CC(=O)N2CC1CC1	inactive	–	Dose-Dependent Effect	6	inactive	–
Cc1cc2n(n1)C1(CCN(C(=O)c3ccc(Cl)cc3)CC1)CC(=O)N2CC1CC1	inactive	–	–	–	inactive	Dose-Dependent Effect
